Where only a bound is given, the exact number is not on record here.

Assay [1] addresses T1, Heat shock protein HSP 90-alpha (Homo sapiens, UniProt P07900). The assay is described as follows: Inhibition of His6-tagged N-terminal human HSP90alpha expressed in Escherichia coli BL21 Lys cells preincubated for 10 mins followed by SA-APC and biotin-GM addition and measured after 6 hrs by TR-FRET assay.
Assay [2] concerns MCF7. The assay is described as follows: Antiproliferative activity against human MCF7 cells. Type of assay: functional, cell-based.
A short description of assay [3]: Antiproliferative activity against rat KNRK5.2 cells. Format: functional, cell-based.
Assay [4] in a line: Binding affinity to His6-tagged TPR2A (unknown origin) assessed as reduction in fluorescein-labeled C-terminal Hsp90/TRP2A protein-protein interaction incubated for 2 hrs by fluorescence polarization assay. The arrangement: species or system Homo sapiens.
The subject of the next assay is MIA PaCa-2. The assay is described as follows: Antiproliferative activity against human MIAPaCa2 cells after 48 hrs by MTS assay. As to conditions: MIA PaCa-2, 48 h. Type of assay: functional, cell-based.
For the next assay, the system named is BXPC-3. The assay is described as follows: Antiproliferative activity against human BxPC3 cells after 48 hrs by MTS assay. Format: functional, cell-based. As to conditions: BXPC-3, 48 h. In general terms: Tetrazolium assays rely on reduction of a dye to a coloured formazan, in cell work by metabolically active cells.
For assay [5], the system named is PANC-1. In words: Antiproliferative activity against human PANC1 cells after 48 hrs by MTS assay. Format: functional, cell-based. As to conditions: PANC-1, 48 h.
In assay [6] the test system is PANC-1. In words: Antiproliferative activity against human PANC1 cells after 24 hrs by MTS assay. The conditions noted are these: PANC-1, 24 h. Format: functional, cell-based.
In assay [7] the test system is PANC-1. In words: Antitumor activity against human PANC1 cells xenografted in athymic mouse at 3 mg/kg, ip administered for 2 continuous days followed by 1 injection per 3 days and measured twice per week relative to control. Format: functional. As to conditions: PANC-1, ip, 72 h, read-out: GI. (In general: Xenograft models place foreign cells or tissue in a host animal.)

In assay [8] the target is T1, Heat shock protein HSP 90-alpha. The assay is described as follows: Inhibition of FITC-geldanamycin binding to recombinant human HSP90alpha expressed in Escherichia coli preincubated for 2 hrs followed by Geldanamycin-FITC addition and measured after 5 hrs by fluorescence polarization competitive binding assay. (Polarisation of emitted light reports the rotation of a fluorescent probe.)

The target in assay [9] is T2, Endoplasmin (Homo sapiens, UniProt P14625). In words: Inhibition of FITC-geldanamycin binding to N-terminal His-tagged recombinant human GRP94 expressed in Escherichia coli preincubated for 2 hrs followed by Geldanamycin-FITC addition and measured after 5 hrs by fluorescence polarization competitive binding assay.
T2 sequence (P14625 whole entry): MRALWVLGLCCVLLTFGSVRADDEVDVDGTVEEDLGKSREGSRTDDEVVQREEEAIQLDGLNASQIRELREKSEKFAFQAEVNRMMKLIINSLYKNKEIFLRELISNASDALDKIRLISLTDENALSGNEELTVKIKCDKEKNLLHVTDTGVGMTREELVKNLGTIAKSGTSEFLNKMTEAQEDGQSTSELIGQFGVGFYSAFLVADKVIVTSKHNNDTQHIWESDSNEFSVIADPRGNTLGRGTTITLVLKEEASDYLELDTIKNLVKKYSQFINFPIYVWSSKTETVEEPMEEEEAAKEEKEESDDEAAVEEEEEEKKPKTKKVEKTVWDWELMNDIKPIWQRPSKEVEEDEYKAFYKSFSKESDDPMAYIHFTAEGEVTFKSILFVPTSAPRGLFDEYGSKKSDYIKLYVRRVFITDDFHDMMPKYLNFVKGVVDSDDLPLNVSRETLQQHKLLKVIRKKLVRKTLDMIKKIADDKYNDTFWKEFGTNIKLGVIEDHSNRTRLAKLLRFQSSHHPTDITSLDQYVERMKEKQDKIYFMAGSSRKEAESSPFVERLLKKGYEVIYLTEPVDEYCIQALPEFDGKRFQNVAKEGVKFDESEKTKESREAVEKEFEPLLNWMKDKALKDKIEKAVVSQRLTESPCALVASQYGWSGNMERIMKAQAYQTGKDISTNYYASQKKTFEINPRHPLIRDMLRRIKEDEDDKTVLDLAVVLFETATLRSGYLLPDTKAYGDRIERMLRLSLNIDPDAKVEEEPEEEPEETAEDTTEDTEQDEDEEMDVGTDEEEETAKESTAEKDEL
For assay [10], the target named is Heat shock protein HSP 90-beta (Homo sapiens, UniProt P08238). The assay is described as follows: Inhibition of FITC-geldanamycin binding to recombinant human HSP90beta expressed in Escherichia coli preincubated for 2 hrs followed by Geldanamycin-FITC addition and measured after 5 hrs by fluorescence polarization competitive binding assay.
Heat shock protein HSP 90-beta, sequence (P08238 whole entry): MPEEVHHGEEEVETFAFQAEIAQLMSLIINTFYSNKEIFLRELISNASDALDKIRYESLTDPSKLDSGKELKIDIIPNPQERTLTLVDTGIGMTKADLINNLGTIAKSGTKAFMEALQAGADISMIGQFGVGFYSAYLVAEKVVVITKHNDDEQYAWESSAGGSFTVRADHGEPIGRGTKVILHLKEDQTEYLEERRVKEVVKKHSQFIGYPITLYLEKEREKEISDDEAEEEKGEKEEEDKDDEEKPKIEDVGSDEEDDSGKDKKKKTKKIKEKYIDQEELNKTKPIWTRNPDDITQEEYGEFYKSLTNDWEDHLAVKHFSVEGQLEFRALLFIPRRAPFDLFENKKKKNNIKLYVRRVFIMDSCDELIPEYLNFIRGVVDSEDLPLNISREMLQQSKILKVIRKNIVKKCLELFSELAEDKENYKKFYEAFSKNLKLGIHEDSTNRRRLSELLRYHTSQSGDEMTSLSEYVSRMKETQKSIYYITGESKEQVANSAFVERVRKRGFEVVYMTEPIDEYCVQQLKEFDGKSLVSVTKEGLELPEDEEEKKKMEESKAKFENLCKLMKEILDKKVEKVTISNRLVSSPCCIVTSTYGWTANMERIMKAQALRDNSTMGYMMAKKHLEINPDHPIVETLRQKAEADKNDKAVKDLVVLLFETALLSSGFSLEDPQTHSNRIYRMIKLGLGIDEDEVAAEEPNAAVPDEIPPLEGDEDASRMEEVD
Assay [11] has as its target T3, Heat shock protein 75 kDa, mitochondrial (Homo sapiens, UniProt Q12931).
T3 sequence (Q12931 whole entry): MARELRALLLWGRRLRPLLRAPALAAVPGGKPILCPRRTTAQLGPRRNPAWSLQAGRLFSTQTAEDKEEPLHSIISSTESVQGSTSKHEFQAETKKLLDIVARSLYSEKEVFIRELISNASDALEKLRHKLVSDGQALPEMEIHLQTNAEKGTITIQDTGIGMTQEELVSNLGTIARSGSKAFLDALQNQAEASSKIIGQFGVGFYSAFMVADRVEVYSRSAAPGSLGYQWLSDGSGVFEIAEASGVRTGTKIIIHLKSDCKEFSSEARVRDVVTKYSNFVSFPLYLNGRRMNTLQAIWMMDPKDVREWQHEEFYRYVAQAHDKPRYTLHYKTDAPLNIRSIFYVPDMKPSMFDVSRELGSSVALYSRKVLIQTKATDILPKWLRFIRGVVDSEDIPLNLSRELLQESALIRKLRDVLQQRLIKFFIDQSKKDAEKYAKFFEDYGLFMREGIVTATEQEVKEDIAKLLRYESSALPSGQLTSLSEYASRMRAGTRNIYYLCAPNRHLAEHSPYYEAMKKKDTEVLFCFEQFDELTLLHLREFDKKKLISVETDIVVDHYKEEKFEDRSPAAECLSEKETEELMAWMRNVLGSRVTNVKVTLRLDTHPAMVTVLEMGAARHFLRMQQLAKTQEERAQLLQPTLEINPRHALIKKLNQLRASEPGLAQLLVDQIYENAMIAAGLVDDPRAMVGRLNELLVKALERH
The assay is described as follows: Inhibition of FITC-geldanamycin binding to N-terminal His-tagged recombinant human TRAP1 (60 to 704 residues) expressed in Escherichia coli preincubated for 2 hrs followed by Geldanamycin-FITC addition and measured after 5 hrs by fluorescence polarization competitive binding assay.

The target of assay [12] is T2, Endoplasmin. In words: Displacement of FITC-geldanamycin from GRP94 (unknown origin) after 24 hrs by fluorescence polarization assay.
Another assay concerns MV4-11. The assay is described as follows: Antiproliferative activity against human MV4-11 cells after 120 hrs by TopCount scintillation analysis. Format: functional, cell-based. As to conditions: MV4-11, 120 h.
A short description of assay [13]: Binding affinity to His6-tagged TPR2A (unknown origin) by isothermal titration calorimetry. The arrangement: species or system Homo sapiens.
The subject of a further assay is NCI-H1299. In words: Antiproliferative activity against human NCI-H1299 cells incubated for 2 days followed by medium replacement by MTT assay. Format: functional, cell-based. As to conditions: NCI-H1299, 48 h.
Assay [14] concerns MCF7. In words: Antiproliferative activity against human MCF7 cells after 72 hrs by MTS/PMS assay. Format: functional, cell-based. The conditions noted are these: MCF7, 72 h.
In a further assay the test system is MDA-MB-231. The assay is described as follows: Antiproliferative activity against human MDA-MB-231 cells. Format: functional, cell-based.

In [1], `COc1cccc(C(=O)NC2CC3CCC(C2)N3c2ccc(C(N)=O)cn2)c1C` (stereo unspecified) registered an IC50 of 0.641 µM.
For the compound `COc1c(C)cnc(Cn2cnc3c(Cl)nc(N)nc32)c1C` [BIIB021], the IC50 in the assay on MCF7 [2] is 0.31 µM.
Turning to `C[C@@H]1C[C@H]2O[C@@H]2\C=C/C=C/C(=N\O)Cc2c(Cl)c(O)cc(O)c2C(=O)O1`, 0.039 µM corresponded to half-maximal inhibition in assay [3] (IC50).
In the case of `Cn1nc(Cc2ccccc2)nc2c(=O)n(C)c(=O)nc1-2`, the Kd in assay [4] amounted to 0.566 µM.
With `CC1=C(CO)C(=O)O[C@@H]([C@@H](C)[C@H]2CC[C@H]3[C@@H]4C[C@H]5O[C@]56[C@@H](O)C=CC(=O)[C@]6(C)[C@H]4CC[C@]23C)C1` [WITHAFERIN A], the IC50 was determined as 2.93 µM in the assay on MIA PaCa-2, 2.78 µM with BXPC-3 and 1.24 µM in the assay with PANC-1 [5].
In the assay with PANC-1 [6], `CC1=C(O)C(=O)C=C2C1=CC=C1[C@@]2(C)CC[C@@]2(C)[C@@H]3C[C@](C)(C(=O)O)CC[C@]3(C)CC[C@]12C` [CELASTROL] returned an IC50 of 3 µM. Moreover, the inhibition in vivo at 3 mg/kg in the assay with PANC-1 [7] stood at 80%.
In the case of `CCn1nc(-c2cccs2)nc2c(=O)n(C)c(=O)nc1-2`, the Kd in assay [4] is 0.308 µM.
As to `CCc1cc(C(N)=O)ccc1-n1nc(C(C)C)c2c(-n3cnc(-c4cnn(C)c4)c3)ccnc21` [TAS-116], the Ki in assay [8] was 0.0347 µM; on Endoplasmin [9], greater than 50 µM; in [10], 0.0213 µM; in [11], greater than 50 µM.
Regarding `CC(C)NCCCn1c(Sc2cc3c(cc2I)OCO3)nc2c(N)ncnc21` [PU-H71], the IC50 in the assay on MCF7 [2] is 0.09 µM.
Compound `CC(C)c1cc(C(=O)N2Cc3ccccc3C2)c(O)c2cnoc12` showed a Kd at Endoplasmin [12] of 8.48 µM.
For the compound `CN(C)c1cc2c(cc1Sc1nc3c(N)nccc3n1CCNCC(C)(C)C)OCO2` [CUDC-305], in the assay with MV4-11, the IC50 turned out to be 0.1 µM.
For the compound `CCn1nc(-c2ccccc2)nc2c(=O)n(C)c(=O)nc1-2`, the Kd in assay [4] stood at 0.928 µM.
In turn, `CO[C@@H]1[C@@H](OC(N)=O)[C@@H](O)[C@H](Oc2ccc3c(O)c(NC(=O)c4ccc(O)c(CC=C(C)C)c4)c(=O)oc3c2C)OC1(C)C` [NOVOBIOCIN] had an IC50 in the assay with MCF7 [2] of 256 µM.
`Cc1nc2c(=O)n(C)c(=O)nc-2n(C)n1`: the values for the Kd in assay [4] and in assay [13] were 0.365 µM and 16 µM, respectively.
As to `Cn1nc(-c2ccccc2)nc2c(=O)n(C)c(=O)nc1-2`, the Kd in assay [4] was 1.04 µM.
In the case of `COc1ccc(CC(=O)c2ccc3c(c2OC)C=CC(C)(C)O3)cc1OC`, the IC50 with NCI-H1299 stood at 0.14 µM.
In the assay with MCF7 [14], `CC(C)=CCc1c(O)cc2occ(-c3ccc(Cl)c(Cl)c3)c(=O)c2c1O` gave an IC50 of 7.3 µM.
As for `CCCc1nc2c(=O)n(C)c(=O)nc-2n(C)n1`, the IC50 in the assay with MDA-MB-231 was found to be 1.75 µM. Besides, in assay [4], the Kd stood at 0.202 µM.

Broadly, the IC50 is the point on the concentration scale where inhibition reaches its midpoint. Broadly, the Kd is the free concentration of one partner at which half of the binding sites on the other are occupied at equilibrium, for simple one-to-one binding. One may read the Ki as a dissociation constant, usually derived from enzyme kinetics or from competition with a known ligand.
